Source: US8829015B2 (Novartis AG, priority 2005, dated 2014)
Values joined by “and” are separate entries in the source; they are usually repeats but may differ in a detail not shown here. Identical values can stand only once. “Also recorded” adds a separate entry of the source. Counter-ions that a name gives are not always drawn. Values belong to the molecule of their own block, whether it stands above or below them.

Legend:
[1] = Equilibration of free base forms with solvents, XRPD; format: physicochemical; conditions: seven solvents (ethanol absolute, methanol, tetrahydrofuran, water, tetrahydrofuran/water, ethanol/water, methanol/water 1:1), one day, 25° C.
From the text: The solid part was investigated by XRPD.

[2] = Equilibration of A-B mixtures of the hydrochloride salt in solvents; format: physicochemical
[3] = Form conversion on exposure to solvent vapor, air, moisture or room conditions; format: physicochemical
[4] = Stability studies on storage; format: physicochemical; conditions: for form after storage: 1 month at 80° C. and 75% relative humidity; for form transition after storage: storage at various relative humidities
[5] = Solubility by gravimetric techniques at different temperatures, residue by XRPD
[6] = Equilibration of hydrochloride forms A, B and C with solvents, XRPD; format: physicochemical
From the text: Then the solutions were filtered and the solid part investigated by XRPD.

[7] = Intrinsic dissolution rate (rotating disk); format: physicochemical
Protocol: Intrinsic Dissolution Rate (IDR): Dissolution rate measurements were performed at 37° C. using the rotating disk method (VanKell Instrument). A single rotation speed of 200 rpm was used. For IDR in 0.1N HCl, an 800 mL volume, and for IDR in water, a 200 mL volume were used. The solution was continuously pumped through a UV measuring cell and recycled to the dissolution vessel.
The measurements were carried out on a VanKel instrument using a Cary 100 photometer.

physchem = conditions: thermodynamic from solid
[8] = in the presence of methanol vapor
[9] = 0.0001N HCl, 25° C., after 24 hours
[10] = 0.001N HCl, 25° C., after 24 hours
[11] = 0.001N HCl, 50° C., after 24 hours
[12] = 0.01N HCl, 25° C., after 24 hours
[13] = 0.1N HCl, 50° C., after 24 hours
[14] = Methanol, 50° C., after 24 hours
[15] = Methanol/Water (95/5) v/v, 20° C., 1 hour
[16] = Methanol/Water (95/5) v/v, 45° C., 1 hour
[17] = Methanol/Water (95/5) v/v, −10° C., 24 hours
[18] = Methanol/Water (99.5/0.5) v/v, 20° C., 10 minutes
[19] = Methanol/Water (99.5/0.5) v/v, 20° C., 1 hour
[20] = Methanol/Water (99.5/0.5) v/v, 45° C., 10 minutes
[21] = Methanol/Water (99.5/0.5) v/v, 45° C., 1 hour
[22] = Methanol/Water (99.5/0.5) v/v, 45° C., 24 hours
[23] = Methanol/Water (99.5/0.5) v/v, −10° C., 10 minutes
[24] = Methanol/Water (99.5/0.5) v/v, −10° C., 1 hour
[25] = dissolution medium HCl 0.0001 N
[26] = dissolution medium pH 2 (citrate buffer)
[27] = methanol/water (95/5) v/v, 20 °C, organic solvent or mixture
[28] = methanol/water (95/5) v/v, 45 °C, organic solvent or mixture
[29] = methanol/water (95/5) v/v, -10 °C, organic solvent or mixture
[30] = methanol/water (99.5/0.5) v/v, 20 °C, organic solvent or mixture
[31] = methanol/water (99.5/0.5) v/v, 45 °C, organic solvent or mixture

form transition on equilibration [1]: No form transitions occurred
Compound: Cc1cn(-c2cc(NC(=O)c3ccc(C)c(Nc4nccc(-c5cccnc5)n4)c3)cc(C(F)(F)F)c2)cn1 [form A/form B (1:1)]

Form after equilibration of A-B mixture ([2]; Methanol 0.25% water, 24 hours 40° C., ? = extra peak (unclear whether new form or free base)): B/? | Form after equilibration of A-B mixture ([2]; Methanol 10% water, significant enrichment in A after 12 hours): A/B
Compound: Cc1cn(-c2cc(NC(=O)c3ccc(C)c(Nc4nccc(-c5cccnc5)n4)c3)cc(C(F)(F)F)c2)cn1

Compound: Cc1cn(-c2cc(NC(=O)c3ccc(C)c(Nc4nccc(-c5cccnc5)n4)c3)cc(C(F)(F)F)c2)cn1 [Form C′ of the hydrochloride salt]
form conversion ([3]; under room conditions): converts within a few minutes under room conditions to a mixture of forms B and C

form conversion ([3]; exposed to moisture): converts back to the monohydrate
Compound: Cc1cn(-c2cc(NC(=O)c3ccc(C)c(Nc4nccc(-c5cccnc5)n4)c3)cc(C(F)(F)F)c2)cn1 [Form B′ of the hydrochloride salt]
form conversion ([3]; under room conditions): converts within a few minutes under room conditions to form B

Compound: Cc1cn(-c2cc(NC(=O)c3ccc(C)c(Nc4nccc(-c5cccnc5)n4)c3)cc(C(F)(F)F)c2)cn1 [Form SC of the hydrochloride salt]
form conversion ([3]; exposed to air): converts quickly to the monohydrate form C when exposed to air

Compound: Cc1cn(-c2cc(NC(=O)c3ccc(C)c(Nc4nccc(-c5cccnc5)n4)c3)cc(C(F)(F)F)c2)cn1 [Form SB of the hydrochloride salt]
form conversion ([3]; exposed to air): converts quickly to the monohydrate form B when exposed to air

form after storage [4]: showed a mixture with form A | form transition after storage [4]: No form transitions were observed | form conversion [3, 8]: converts to form B | Solubility [5, 9]: 1.67 mg/mL | XRPD (form of the solid) [5, 9]: C + A | Solubility [5, 10]: 1.29 mg/mL | XRPD (form of the solid) [5, 10]: C + A | Solubility [5, 11]: 6.72 mg/mL | Solubility [5, 12]: 1.37 mg/mL | Solubility ([5]; 0.01N HCl, 50° C., after 24 hours): 1.69 mg/mL | Solubility ([5]; 0.1N HCl, 25° C., after 24 hours): 2.35 mg/mL | Solubility [5, 13]: 8.30 mg/mL | XRPD (form of the solid) [5, 13]: A+ | Solubility ([5]; Methanol, 25° C., after 24 hours): 18.20 mg/mL | Solubility [5, 14]: 55.26 mg/mL | Solubility ([5]; Methanol/Water (95/5) v/v, 20° C., 10 minutes): 18.88 mg/mL | Solubility [5, 15]: 13.03 mg/mL | Solubility ([5]; Methanol/Water (95/5) v/v, 20° C., 24 hours): 11.76 mg/mL | Solubility ([5]; Methanol/Water (95/5) v/v, 45° C., 10 minutes): 37.68 mg/mL | Solubility [5, 16]: 31.15 mg/mL | Solubility ([5]; Methanol/Water (95/5) v/v, 45° C., 24 hours): 32.26 mg/mL | Solubility ([5]; Methanol/Water (95/5) v/v, −10° C., 10 minutes): 9.73 mg/mL | Solubility ([5]; Methanol/Water (95/5) v/v, −10° C., 1 hour): 7.74 mg/mL | Solubility [5, 17]: 11.00 mg/mL | Solubility [5, 18]: 24.34 mg/mL | Solubility [5, 19]: 17.70 mg/mL | XRPD (form of the solid) [5, 19]: C + B | Solubility ([5]; Methanol/Water (99.5/0.5) v/v, 20° C., 24 hours): 12.09 mg/mL | Solubility [5, 20]: 39.86 mg/mL | Solubility [5, 21]: 46.15 mg/mL | Solubility [5, 22]: 45.59 mg/mL | XRPD (form of the solid) [5, 22]: C + B | Solubility [5, 23]: 11.91 mg/mL | Solubility [5, 24]: 7.99 mg/mL | Solubility ([5]; Methanol/Water (99.5/0.5) v/v, −10° C., 24 hours): 6.12 mg/mL | Solubility ([5]; Water, 25° C., after 24 hours): 1.47 mg/mL | XRPD (form of the solid) ([5]; Water, 25° C., after 24 hours): C + A | Solubility ([5]; Water, 50° C., after 24 hours): 1.31 mg/mL | form transition on equilibration ([6]; methanol, 50° C., 1 day): transitioned to form B | form transition on equilibration ([6]; methanol, one day, 25° C.): transitioned to form B | form transition on equilibration ([6]; tetrahydrofuran, 50° C., 1 day): to a mixture of forms B and C | form transition on equilibration ([6]; water, 50° C., 1 day): transitioned to form A | form transition on equilibration ([6]; water, one day, 25° C.): transitioned to form A | Intrinsic Dissolution Rate value [7, 25]: 0.0004 mg/min/cm^2 | Intrinsic Dissolution Rate value ([7]; dissolution medium HCl 0.001 N): 0.0057 mg/min/cm^2 | Intrinsic Dissolution Rate value ([7]; dissolution medium HCl 0.01 N): 0.0247 mg/min/cm^2 | Intrinsic Dissolution Rate value ([7]; dissolution medium Water): 0.000 mg/min/cm^2 | Intrinsic Dissolution Rate value [7, 26]: 0.0099 mg/min/cm^2
Compound: Cc1cn(-c2cc(NC(=O)c3ccc(C)c(Nc4nccc(-c5cccnc5)n4)c3)cc(C(F)(F)F)c2)cn1 [Form C of the hydrochloride salt]
form transition on equilibration ([6]; ethanol/water (99:1), 50° C., 1 day): transitioned to a mixture of all three forms | Intrinsic Dissolution Rate value ([7]; dissolution medium HCl 0.1 N): 0.2323 mg/min/cm^2 and 0.3213 mg/min/cm^2

solubility at 24 h (physchem; 0.001N HCl, 25 °C, aqueous buffer): 0.92 mg/mL | solubility at 24 h (physchem; 0.01N HCl, 50 °C, simulated gastric fluid): 0.85 mg/mL | solubility at 24 h (physchem; 0.1N HCl, 25 °C, simulated gastric fluid): 1.32 mg/mL | solubility at 24 h (physchem; methanol, 25 °C, organic solvent or mixture): 13.8 mg/mL | solubility at 24 h (physchem; methanol, 50 °C, organic solvent or mixture): 52.5 mg/mL | solubility at 10 min (physchem; [27]): 25.7 mg/mL | solubility at 24 h (physchem; [27]): 13.1 mg/mL | solubility at 10 min (physchem; [28]): 46.1 mg/mL | solubility at 1 h (physchem; [28]): 61.1 mg/mL | solubility at 10 min (physchem; [29]): 12.3 mg/mL | solubility at 1 h (physchem; [29]): 14.4 mg/mL | solubility at 10 min (physchem; [30]): 33.7 mg/mL | solubility at 24 h (physchem; [30]): 12.2 mg/mL | solubility at 10 min (physchem; [31]): 52.2 mg/mL | solubility at 1 h (physchem; [31]): 62.5 mg/mL | solubility at 24 h (physchem; [31]): 41.9 mg/mL | solubility at 24 h (physchem; methanol/water (99.5/0.5) v/v, -10 °C, organic solvent or mixture): 4.96 mg/mL | solubility at 24 h (physchem; water, 50 °C): 1.03 mg/mL | form transition after storage [4]: No form transitions were observed | form conversion [3, 8]: converts to form B | Solubility [5, 9]: 0.45 mg/mL | Solubility [5, 11]: 0.79 mg/mL | Solubility [5, 12]: 0.43 mg/mL | Solubility [5, 13]: 2.46 mg/mL | XRPD (form of the solid) [5, 14]: C + B | Solubility [5, 15]: 28.18 mg/mL | XRPD (form of the solid) [5, 16]: A + B + C | Solubility [5, 17]: 4.74 mg/mL | XRPD (form of the solid) [5, 18]: A + B | XRPD (form of the solid) [5, 19]: A + B | XRPD (form of the solid) [5, 20]: A + B | XRPD (form of the solid) [5, 21]: C + B | XRPD (form of the solid) [5, 22]: C + B | Solubility [5, 23]: 24.01 mg/mL | Solubility [5, 24]: 26.37 mg/mL | Solubility ([5]; Water, 25° C., after 24 hours): 0.35 mg/mL | form transition on equilibration ([6]; methanol, one day, 25° C.): transitioned to form B | form transition on equilibration ([6]; methanol/HCl 0.1N, 50° C., 1 day): transitioned to form C | form transition on equilibration ([6]; methanol/water (99:1), 50° C., 1 day): transitioned to form C | form transition on equilibration ([6]; methanol/water (99.3:0.7), 50° C., 1 day): transitioned to form C | Intrinsic Dissolution Rate value [7, 25]: 0.0003 mg/min/cm^2 | Intrinsic Dissolution Rate value ([7]; dissolution medium HCl 0.001 N): 0.0089 mg/min/cm^2 | Intrinsic Dissolution Rate value ([7]; dissolution medium HCl 0.01 N): 0.0178 mg/min/cm^2 | Intrinsic Dissolution Rate value ([7]; dissolution medium Water): 0.0004 mg/min/cm^2 | Intrinsic Dissolution Rate value [7, 26]: 0.0076 mg/min/cm^2
Compound: Cc1cn(-c2cc(NC(=O)c3ccc(C)c(Nc4nccc(-c5cccnc5)n4)c3)cc(C(F)(F)F)c2)cn1 [Form A of the hydrochloride salt]
form transition on equilibration ([6]; methanol, 50° C., 1 day): transitioned to a mixture of forms B and C | form transition on equilibration ([6]; methanol/HCl 0.1N, one day, 25° C.): transitioned to form B with a small amount of form C | form transition on equilibration ([6]; methanol/water (99:1), one day, 25° C.): transitioned to form C with a small amount of form B | form transition on equilibration ([6]; methanol/water (99.3:0.7), one day, 25° C.): transitioned to form B with a small amount of form C | Intrinsic Dissolution Rate value ([7]; dissolution medium HCl 0.1 N): 0.6778 mg/min/cm^2 and 1.2467 mg/min/cm^2

form after storage [4]: showed a mixture with form A | form conversion [3, 8]: converts to form B | Intrinsic Dissolution Rate value ([7]; dissolution medium HCl 0.1 N): 0.2508 mg/min/cm^2 | Intrinsic Dissolution Rate value [7, 26]: 0.0250 mg/min/cm^2
Compound: Cc1cn(-c2cc(NC(=O)c3ccc(C)c(Nc4nccc(-c5cccnc5)n4)c3)cc(C(F)(F)F)c2)cn1 [Amorphous form of the hydrochloride salt]
form transition after storage [4]: spontaneously crystallizes to form A; also recorded: spontaneously converts to the form A hydrochloride salt

Compound: Cc1cn(-c2cc(NC(=O)c3ccc(C)c(Nc4nccc(-c5cccnc5)n4)c3)cc(C(F)(F)F)c2)cn1 [Form A′ of the hydrochloride salt]
form conversion ([3]; under room conditions): converts within a few minutes under room conditions to form A
